Laboratory results reported in PubChem BioAssay (NCI).
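Assay format: 96-well plates, 48-hour exposure. TGI: concentration producing complete growth inhibition.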

Experiments:
Experiment in all cases: NCI tumour cell line growth inhibition, 48 h
786-0 renal = system: 786-0 renal
A498 renal = system: A498 renal
A549 NSCLC = system: A549 NSCLC
ACHN renal = system: ACHN renal
CAKI-1 renal = system: CAKI-1 renal
CCRF-CEM leukemia = system: CCRF-CEM leukemia
COLO 205 colon = system: COLO 205 colon
DLD-1 colon = system: DLD-1 colon
DMS 273 small cell lung = system: DMS 273 small cell lung
EKVX NSCLC = system: EKVX NSCLC
HCC-2998 colon = system: HCC-2998 colon
HCT-116 colon = system: HCT-116 colon
HL-60(TB) leukemia = system: HL-60(TB) leukemia
HOP-18 NSCLC = system: HOP-18 NSCLC
HOP-62 NSCLC = system: HOP-62 NSCLC
HT29 colon = system: HT29 colon
IGROV1 ovarian = system: IGROV1 ovarian
K-562 leukemia = system: K-562 leukemia
KM12 colon = system: KM12 colon
KM20L2 colon = system: KM20L2 colon
LOX IMVI melanoma = system: LOX IMVI melanoma
LXFL 529 NSCLC = system: LXFL 529 NSCLC
M14 melanoma = system: M14 melanoma
M19-MEL melanoma = system: M19-MEL melanoma
MALME-3M melanoma = system: MALME-3M melanoma
MOLT-4 leukemia = system: MOLT-4 leukemia
NCI-H226 lung = system: NCI-H226 lung
NCI-H23 lung = system: NCI-H23 lung
NCI-H460 lung = system: NCI-H460 lung
OVCAR-5 ovarian = system: OVCAR-5 ovarian
OVCAR-8 ovarian = system: OVCAR-8 ovarian
RPMI-8226 leukemia = system: RPMI-8226 leukemia
RXF-631 renal = system: RXF-631 renal
SF-268 CNS = system: SF-268 CNS
SF-295 CNS = system: SF-295 CNS
SK-MEL-5 melanoma = system: SK-MEL-5 melanoma
SK-OV-3 ovarian = system: SK-OV-3 ovarian
SN12C renal = system: SN12C renal
SNB-19 CNS = system: SNB-19 CNS
SNB-75 CNS = system: SNB-75 CNS
SNB-78 CNS = system: SNB-78 CNS
SR leukemia = system: SR leukemia
SW-620 colon = system: SW-620 colon
TK-10 renal = system: TK-10 renal
U251 CNS = system: U251 CNS
UACC-257 melanoma = system: UACC-257 melanoma
UACC-62 melanoma = system: UACC-62 melanoma
UO-31 renal = system: UO-31 renal
XF 498 CNS = system: XF 498 CNS
DMS 114 small cell lung = system: DMS 114 small cell lung
HCT-15 colon = system: HCT-15 colon
NCI-H522 lung = system: NCI-H522 lung
OVCAR-3 ovarian = system: OVCAR-3 ovarian
OVCAR-4 ovarian = system: OVCAR-4 ovarian
RXF 393 renal = system: RXF 393 renal
SK-MEL-2 melanoma = system: SK-MEL-2 melanoma
SK-MEL-28 melanoma = system: SK-MEL-28 melanoma

## Oc1ccc([Te]CCNCC[Te]c2ccc(O)cc2)cc1
786-0 renal
  TGI: > 100 µM
A498 renal
  TGI: 46.6 µM
A549 NSCLC
  TGI: 16.6 µM
ACHN renal
  TGI: 94.8 µM
CAKI-1 renal
  TGI: > 100 µM
CCRF-CEM leukemia
  TGI: > 100 µM
COLO 205 colon
  TGI: 22.4 µM
DLD-1 colon
  TGI: > 100 µM
DMS 273 small cell lung
  TGI: > 100 µM
EKVX NSCLC
  TGI: 19 µM
HCC-2998 colon
  TGI: 38.2 µM
HCT-116 colon
  TGI: 28.4 µM
HL-60(TB) leukemia
  TGI: 38.5 µM
HOP-18 NSCLC
  TGI: 66.5 µM
HOP-62 NSCLC
  TGI: 46.5 µM
HT29 colon
  TGI: > 100 µM
IGROV1 ovarian
  TGI: > 100 µM
K-562 leukemia
  TGI: > 100 µM
KM12 colon
  TGI: > 100 µM
KM20L2 colon
  TGI: 55.1 µM
LOX IMVI melanoma
  TGI: 43 µM
LXFL 529 NSCLC
  TGI: 32 µM
M14 melanoma
  TGI: 55.3 µM
M19-MEL melanoma
  TGI: 50.5 µM
MALME-3M melanoma
  TGI: 69.3 µM
MOLT-4 leukemia
  TGI: > 100 µM
NCI-H226 lung
  TGI: 46.4 µM
NCI-H23 lung
  TGI: 23.2 µM
NCI-H460 lung
  TGI: 33.9 µM
OVCAR-5 ovarian
  TGI: 37.7 µM
OVCAR-8 ovarian
  TGI: 48 µM
RPMI-8226 leukemia
  TGI: > 100 µM
RXF-631 renal
  TGI: 90.2 µM
SF-268 CNS
  TGI: > 100 µM
SF-295 CNS
  TGI: 75.4 µM
SK-MEL-5 melanoma
  TGI: 26.4 µM
SK-OV-3 ovarian
  TGI: 98.9 µM
SN12C renal
  TGI: > 100 µM
SNB-19 CNS
  TGI: > 100 µM
SNB-75 CNS
  TGI: 70.8 µM
SNB-78 CNS
  TGI: 78.6 µM
SR leukemia
  TGI: > 100 µM
SW-620 colon
  TGI: > 100 µM
TK-10 renal
  TGI: 90.7 µM
U251 CNS
  TGI: 25.6 µM
UACC-257 melanoma
  TGI: > 100 µM
UACC-62 melanoma
  TGI: 45.8 µM
UO-31 renal
  TGI: 31.7 µM
XF 498 CNS
  TGI: 39.2 µM

## COc1ccccc1C1C(Cl)C(=O)N1n1cnc2ccccc2c1=O (centres undefined)
786-0 renal
  TGI: > 100 µM
A549 NSCLC
  TGI: > 100 µM
ACHN renal
  TGI: > 100 µM
CAKI-1 renal
  TGI: > 100 µM
CCRF-CEM leukemia
  TGI: > 100 µM
COLO 205 colon
  TGI: > 100 µM
DLD-1 colon
  TGI: > 100 µM
DMS 114 small cell lung
  TGI: > 100 µM
DMS 273 small cell lung
  TGI: > 100 µM
EKVX NSCLC
  TGI: > 100 µM
HCC-2998 colon
  TGI: > 100 µM
HCT-116 colon
  TGI: > 100 µM
HCT-15 colon
  TGI: > 100 µM
HL-60(TB) leukemia
  TGI: > 100 µM
HOP-18 NSCLC
  TGI: > 100 µM
HOP-62 NSCLC
  TGI: > 100 µM
HT29 colon
  TGI: > 100 µM
IGROV1 ovarian
  TGI: > 100 µM
K-562 leukemia
  TGI: > 100 µM
KM12 colon
  TGI: > 100 µM
KM20L2 colon
  TGI: > 100 µM
LOX IMVI melanoma
  TGI: > 100 µM
LXFL 529 NSCLC
  TGI: > 100 µM
M14 melanoma
  TGI: > 100 µM
M19-MEL melanoma
  TGI: > 100 µM
MALME-3M melanoma
  TGI: > 100 µM
MOLT-4 leukemia
  TGI: > 100 µM
NCI-H226 lung
  TGI: > 100 µM
NCI-H23 lung
  TGI: > 100 µM
NCI-H460 lung
  TGI: > 100 µM
NCI-H522 lung
  TGI: > 100 µM
OVCAR-3 ovarian
  TGI: > 100 µM
OVCAR-4 ovarian
  TGI: > 100 µM
OVCAR-5 ovarian
  TGI: > 100 µM
OVCAR-8 ovarian
  TGI: > 100 µM
RPMI-8226 leukemia
  TGI: > 100 µM
RXF 393 renal
  TGI: > 100 µM
SF-268 CNS
  TGI: > 100 µM
SF-295 CNS
  TGI: > 100 µM
SK-MEL-2 melanoma
  TGI: > 100 µM
SK-MEL-28 melanoma
  TGI: > 100 µM
SK-MEL-5 melanoma
  TGI: > 100 µM
SK-OV-3 ovarian
  TGI: > 100 µM
SN12C renal
  TGI: > 100 µM
SNB-19 CNS
  TGI: > 100 µM
SNB-75 CNS
  TGI: > 100 µM
SNB-78 CNS
  TGI: > 100 µM
SR leukemia
  TGI: > 100 µM
SW-620 colon
  TGI: > 100 µM
TK-10 renal
  TGI: > 100 µM
U251 CNS
  TGI: > 100 µM
UACC-257 melanoma
  TGI: > 100 µM
UACC-62 melanoma
  TGI: > 100 µM
UO-31 renal
  TGI: > 100 µM
XF 498 CNS
  TGI: > 100 µM
